Measurements from patent publication US10507207B2, “Non-nucleosidic inhibitors of reverse transcriptase as antagonists of cell proliferation and inducers of cell differentiation” (ISTITUTO SUPERIORE DI SANITA, priority 2001, dated 2019).

Assays:
NIH/3T3 = experiment: FACS cell cycle analysis; type: cell-based, murine; details: after 72 h of nevirapine treatment
Text: (§1) FIG. 3A. Cell cycle analysis in control and nevirapine-exposed cells. […] In the U343 glioma cell line, the cell cycle was separately analysed in the diploid cell fraction (representing about ⅔ of all cells) and in the remaining fraction (about ⅓) which develops aneuploidy. FIG. 3B. […] The filter was reprobed with anti-actin antibody to control equal loading (lower panel).

[1] = system: HT-29 colon carcinoma cells; experiment: Cell proliferation by cell counting; type: cell-based, human; details: 350 μM nevirapine
Text: (§2) Samples were withdrawn at specific times and cells were counted in nevirapine-exposed and control (DMSO-exposed) cultures. […] Saos-2 osteosarcoma cells were the most slowly responsive type, and only after 5 days of exposure did the growth rate begin to decrease compared to control cultures.

HL60 cells [2] = experiment: Growth, viable cell count; type: cell-based, human; details: HL60, Nev 350 μM, 4 days
Morris 3924A hepatoma = experiment: Morris 3924A rat hepatoma in vivo
Protocol: Rat strain: ACI/T inbred (about 180 gr)
Tumor: Morris 3924A hepatoma is a fast-growing tumor which develops in inbred ACI/T animals. Three weeks after inoculation the tumor size is about 10 cm^3.
Preparation of tumor cells: hepatoma tumor cells are prepared from the animal about two weeks after inoculation. The tumor is surgically removed from the animal, separated from connective and necrotic tissues and minced in small pieces. Tumor fragments are then suspended in sterile physiological solution and inoculated in the internal site of one thigh using a 20 ml-syringe with a large size needle. Routinely 0.5 ml of cell suspension are injected. The success rate of tumor implantation is nearly 99%.
On the eleventh day, hepatoma cells were inoculated subcutaneously in pre-treated and in three non-treated control rats.
Procedures and Results: Morris hepatoma cells were inoculated in 4 rats ([…]). The same day, treatment with efavirenz was initiated in two of them by injecting 1 mg/rat/day.

[3] = system: Kasumi-1 cell line and primary blasts from two AML patients; experiment: Cell cycle in myeloid leukemia cells poorly sensitive to RA; type: cell-based, human; details: nevirapine treatment, data not shown
cyclin D1 in MCF-7 = experiment: Western immunoblotting of cyclin D1; type: cell-based, human; details: 72 h nevirapine vs non-exposed controls
Text: as §1

cyclin D1 in HT-29 = experiment: Western immunoblotting of cyclin D1; type: cell-based, human; details: 72 h nevirapine vs non-exposed controls
Text: as §1

[4] = system: cyclin D1 in U343 Mg glioma; experiment: Western immunoblotting of cyclin D1; type: cell-based, human; details: 72 h nevirapine vs non-exposed controls, data not shown
Text: as §1

[5] = system: murine and human cell lines; experiment: Cell proliferation by cell counting, all cell lines; type: cell-based; details: 350 μM nevirapine vs DMSO control
Protocol: Cells were cultured with (dashed line) and without (DMSO, solid line) nevirapine. The proliferation rate is expressed as the ratio of counted cells at the indicated times relative to the initial number of seeded cells, taken as 1. Points represent the mean value and bars the standard deviation from at least three independent assays for all cell types.
as §2

AML #1 [6] = experiment: Growth, viable cell count; type: cell-based, human; details: AML #1, Nev 350 μM, 4 days
[7] = system: human acute myeloid leukemia (AML) cells; experiment: NBT dye reduction assay, summary over Table 2; type: cell-based; details: nevirapine treatment vs control (Table 2)
NB4 cells = experiment: NBT dye reduction assay; type: cell-based, human; details: NB4, Nev 350 μM, 4 days
AML #1 [8] = experiment: NBT dye reduction assay; type: cell-based, human; details: AML #1, Nev 350 μM, 4 days
HT-29 = experiment: FACS cell cycle analysis; type: cell-based, human; details: after 72 h of nevirapine treatment
Text: as §1

U343 Mg = experiment: FACS cell cycle analysis; type: cell-based, human; details: after 72 h of nevirapine treatment
Text: as §1

MCF-7 = experiment: FACS cell cycle analysis; type: cell-based, human; details: after 72 h of nevirapine treatment
Text: as §1

Kasumi-1 cells [9] = experiment: NBT dye reduction assay; type: cell-based, human; details: Kasumi-1, Nev 350 μM, 4 days
cyclin D1 in NIH/3T3 = experiment: Western immunoblotting of cyclin D1; type: cell-based, murine; details: 72 h nevirapine vs non-exposed controls
Text: as §1

teratocarcinoma F9 cells = experiment: Differentiation of F9 cells (morphology, collagen type IV immunofluorescence); type: cell-based, murine; details: IF after 96 h
Protocol: After 96 h, samples were fixed and processed for IF of collagen type IV (α1) chain (FIG. 5c, FIG. 5g, FIG. 5k) and DAPI staining of nuclei (FIG. 5b, FIG. 5f, FIG. 5j); pictures are merged in FIG. 5d, FIG. 5h and FIG. 5l (100× objective).

HL60 cells [10] = experiment: NBT dye reduction assay; type: cell-based, human; details: HL60, Nev 350 μM, 4 days
Kasumi-1 cells [11] = experiment: Differentiation of AML cells poorly sensitive to RA; type: cell-based, human; details: nevirapine treatment
F9 cells = experiment: Semi-quantitative RT-PCR of cell cycle regulatory genes; type: cell-based, murine; details: nevirapine compared to non-exposed F9 cultures
Text: FIG. 7B: Quantitative variations in gene expression. RT-PCR products hybridized with internal oligonucleotides were quantified by densitometry. […] Dark histograms represent the mean value, and light histograms the standard deviation, from at least three experiments for each gene. […] We examined a set of genes encoding D-type cyclins; growth inhibitors; modulators of apoptosis; and housekeeping proteins.

AML #2 = experiment: NBT dye reduction assay; type: cell-based, human; details: AML #2, Nev 350 μM, 4 days

Cc1ccnc2c1NC(=O)c1cccnc1N2C1CC1 [nevirapine, 5,11-dihydro-11-cyclopropyl-4-methyl-6H-dipyrido-[3,2-b:2′,3′-e][1,4]diazepin-6-one]
cells with a G0/G1 DNA content (NIH/3T3): accumulated | effectiveness of proliferation suppression compared with F9 [1]: comparable effectiveness | Viable cells N^0 × 10^5 (HL60 cells [2]): 4.7 ± 1.1 × 10^5 | tumor at the site of injection (Morris 3924A hepatoma; nevirapine 18 mg/rat/day pre-treatment for 11 days, 17 days from inoculation, only one of 3 treated rats, controls 2-4 cm^3): small nodule of a few millimeters | rats in which onset and growth of hepatoma were antagonized (remained permanently healthy) (Morris 3924A hepatoma; nevirapine 18 mg/rat/day pre-treatment for 11 days, untreated 3/3 develop tumor): ⅔ | histology of tumor tissue (Morris 3924A hepatoma; nevirapine-treated rat vs untreated sample): transformed areas are remarkably reduced, and cells present clear apoptotic features | accumulation of cells in the G1 phase of the cell cycle [3]: modest yet constant accumulation | cyclin D1 levels (cyclin D1 in MCF-7): substantial decrease | cyclin D1 levels (cyclin D1 in HT-29): substantial decrease | cyclin D1 levels [4]: substantial decrease | rate of proliferation [5]: decreases the rate of proliferation in all cell lines | Viable cells N^0 × 10^5 (AML #1 [6]): 0.6 ± 0.1 × 10^5 | increase in the number of positive cells in the NBT dye reduction assay [7]: 2.0-3.5 fold | NBT+ (%) (NB4 cells): 37.2 ± 1.4% | NBT+ (%) (AML #1 [8]): 19.5 ± 0.7% | cells with a G0/G1 DNA content (HT-29): accumulated | cells with a G0/G1 DNA content (U343 Mg): accumulated | cells with a G0/G1 DNA content (MCF-7): accumulated | NBT+ (%) (Kasumi-1 cells [9]): 31.2 ± 1.1% | cyclin D1 levels (cyclin D1 in NIH/3T3): substantial decrease | synthesis of collagen type IV(α1) chain (teratocarcinoma F9 cells): increased synthesis | NBT+ (%) (HL60 cells [10]): 37.8 ± 2.5% | differentiation (morphological, functional, immunophenotypic) (Kasumi-1 cells [11]): triggering differentiation | Bcl-2 expression (F9 cells): Up-regulation | Cyclin D3 expression (F9 cells): down-regulated | Rb-2/p130 expression (F9 cells): Up-regulation | cyclin D1 gene down-regulation (F9 cells): 7 fold | expression of housekeeping genes (β-actin, GAPDH) (F9 cells): unaffected | p16^INK4a up-regulation (F9 cells): ~8 fold | p27^Kip1 expression (F9 cells): Up-regulation | p53 expression (F9 cells): unaffected | NBT (%) (AML #2): 68.1 ± 1.4%
